# Measured values reported in US20160272953A1, “Activated Sugars” (ZuChem, Inc., priority 2010, published 2016).
# How the values were obtained:
# [1] = biological target: T1, wild-type P. furiosus enzyme (Pyrococcus furiosus, UniProt Q9HHB6); test: GalK activity by ATP to ADP conversion (HPLC), wild-type enzyme; format: biochemical; details: 200 mM sugar, 100 mM ATP, 1 ug/ml enzyme, 60° C., 20 hours
# T1 construct: 6-His (N); made in house; host or cells: E. coli
# Procedure: The reaction of sugars with the wild type and mutant sugar-1-kinse such as those from Pyrococcus furiousus can also be monitored by following ATP consumption in the reaction. The amount of ATP consumption directly correlates with the amount of sugar-1-kinase produced. For example, to produce additional sugar-1-phosphates a series of experiments were carried out as follows, In a reaction mix containing 50 mM sodium phosphate buffer at pH 7.5, 100 mM ATP, 200 mM of the sugar being tested, 5mM MgC12 either 1 ug/ml of either the PK27 mutant or wild-type P. furiosus enzyme were added. The reaction was incubated at 60° C. for 20 hours. ATP and ADP concentrations were analyzed by HPLC using a Supelcosil LC-18-T column with a flow rate of 1.0 mL/min of 0.05 M. KH2P04/4 mM tetrabutylammonium hydrogen sulfate and a linear gradient solvent program of 0-30% methanol over 30 min. The percent conversion of ATP to ADP was calculated. Sugar-1-phosphate was analyzed by HPLC using Supelcosil LC-SAX column 0.05 M K-phosphate buffer, pH 6.0
# GalK activity by ATp to ADp conversion, 20 h. Percentages indicate degree reaction proceeded to completion within 20 hours.
# Sugar-1-kinase-P = test: One-pot reaction, first step: phosphorylation by Sugar-1-kinase-P (DNS assay, TLC); format: biochemical, Pyrococcus furiosus; details: 8 mM sugar, 12 mM ATP, first 60 minutes
# Procedure: (§1) Initial coupling of the reaction was tested for 1-pot synthesis of NDP-sugars. The reaction was started with 12 mM ATP, 3.5 mM MgCl2, and 8 mM of either L-Glucose or D-galactose. Partially purified Sugar-1-kinase-P was added to the mixture and a sample was taken at 0 and 60 minutes. After 60 minutes, dTTP or UTP (8 mM), 20 μL nucleotidyltransferase-S, and 2 μL of commercially available thermostable pyrophosphatase were added to the reaction and samples were taken at different time points and analyzed by TLC as shown in FIG. 7-1. […] Upon addition of the second enzyme and nucleotide, the formation of dTDP-D-galactose and dTDP-L-glucose began. The sugar nucleotides were more clearly visualized by UV, but can also been seen in the KMnO4 stained TLC plates in FIG. 6-1.
# [2] = system: Sugar-1-kinase-P and nucleotidyltransferase-S; test: One-pot coupled sugar-1-kinase / nucleotidyltransferase reaction (TLC); format: biochemical; details: for conversion to dTDP-sugar, estimated by TLC: dTTP 8 mM as nucleotide donor
# Procedure: as §1
# The conversion is estimated to be greater than 80% based on the loss of Gal-1-P and appearance of dTDP-Gal on TLC. The reaction with L-glucose and dTTP was also successful, however, the conversion was lower and estimated to be 20% by TLC.
# nucleotidyltransferase-S = test: Nucleotidyltransferase-S activity with Gal-1-P and dTTP (TLC and malachite green); format: biochemical, Streptococcus thermophilus; details: 7 mM Gal-1-P, 7 mM dTTP, 0.1 U pyrophosphatase
# Procedure: The nucleotidyltransferase-S enzyme was chosen for further study due to its high expression in E. coli. Nucleotidyltransferase activity was measured with the commercially available substrate D-galactose-1-phosphate (Gal-1-P). This is not the natural substrate of homologous nucleotidyltransferases, which is D-glucose-1-phosphate. Nucleotidyltransferase-S was incubated with 7 mM Gal-1-P, 7 mM dTTP, and 0.1 U of pyrophosphatase. The reaction was monitored by two different methods. […] The second method of assay was a malachite green based inorganic phosphate assay. When dTTP is coupled to a Sugar-1-phosphate it releases pyrophosphate which is broken down to pyrophosphatase to 2 molecules of inorganic phosphate.
# EP-S = test: Nucleotidylyltransferase substrate specificity by TLC, EP-S; format: biochemical, Streptococcus thermophilus; details: UTP, 45° C., 6 mM substrate
# Source text: (§2) A fourth nucleotidlylytransferaseenzyme has been cloned from P. furiousus (EP-P2) that has previously been shown capable of converting the only commercially available L-sugar-1-phosphate (L-fucose-1-P),[47] transferring 82% to produce UDP-L-Fucose as determined by ESI-MS. EP-P2 additionally has a broad activity range on 6 other D-sugar-1-phosphates. This enzyme was cloned as a His-tag fusion and purified by IMAC. Since we had 4 different enzymes (EP-S, EP-T, EP-P, and EP-P2) with different characteristics and substrate specificities, experiments were designed to test the substrate specificities on purified nucleotidlylytransferase enzyme and pure substrates. Reactions with each of the 4 nucleotidlylytransferase enzymes were set up using 4 different sugar-1-phosphates and 2 different nucleotides (32 reactions total), with each enzyme incubated near its optimal temperature. […] Samples were taken at the time of enzyme addition and every hour for three hours and then analyzed by TLC using 80% aqueous acetonitrile +10 mM TBAHS; visualized by UV and stained in KMnO4.
# (§3) The UV visible spots were circled in black for FIG. 6-3 to aid in visualization as only the nucleotides and nucleotide-activated sugars are UV active. […] Furthermore, many of the reactions proceeded to completion by the first time point analyzed.
# EP-T = test: Nucleotidylyltransferase substrate specificity by TLC, EP-T; format: biochemical, Thermus thermophilus; details: 65° C., 6 mM substrate
# Source text: as §2, §3
# EP-P = test: Nucleotidylyltransferase substrate specificity by TLC, EP-P; format: biochemical, Pyrococcus furiosus; details: UTP, 90° C., 6 mM substrate
# Source text: as §2, §3
# EP-P2 [3] = test: Nucleotidylyltransferase substrate specificity by TLC, EP-P2; format: biochemical, P. furiousus; details: 90° C., 6 mM substrate
# Source text: A fourth nucleotidlylytransferaseenzyme has been cloned from P. furiousus (EP-P2) that has previously been shown capable of converting the only commercially available L-sugar-1-phosphate (L-fucose-1-P),[47] transferring 82% to produce UDP-L-Fucose as determined by ESI-MS. EP-P2 additionally has a broad activity range on 6 other D-sugar-1-phosphates. This enzyme was cloned as a His-tag fusion and purified by IMAC. Since we had 4 different enzymes (EP-S, EP-T, EP-P, and EP-P2) with different characteristics and substrate specificities, experiments were designed to test the substrate specificities on purified nucleotidlylytransferase enzyme and pure substrates. Reactions with each of the 4 nucleotidlylytransferase enzymes were set up using 4 different sugar-1-phosphates and 2 different nucleotides (32 reactions total), with each enzyme incubated near its optimal temperature. In a total volume of 200 μL the reactions contained 25 μL of purified enzyme, 5 mM MgCl2, 6 mM nucleotide, 6 mM sugar-1-phosphate, 4 U thermophilic pyrophosphatase (commercially available). The 4 sugar-1-phosphates were D-glucose-1-phosphate, L-glucose-1-phosphate, D-galactose-1-phosphate, and D-mannose-1-phosphate, while the 2 nucleotides chosen were dTTP and UTP. EP-P and EP-P2 were incubated at 90° C., EP-T at 65° C., and EP-S at 45° C. Samples were taken at the time of enzyme addition and every hour for three hours and then analyzed by TLC using 80% aqueous acetonitrile +10 mM TBAHS; visualized by UV and stained in KMnO4.
# The UV visible spots were circled in black for FIG. 6-3 to aid in visualization as only the nucleotides and nucleotide-activated sugars are UV active. The upper left plates show TLC of standard compounds. […] To our knowledge these are the first examples of commercially viable dTDP-L-glucose enzymatic production. […] EP-S had good activity on both D-glu-1P and D-mann-1P. EP-P and EP-T both were only active on D-glucose-1P with UTP as the nucleotide. […] Furthermore, many of the reactions proceeded to completion by the first time point analyzed.
# E. coli GalKMLYH = biological target: T2, E. coli GalKMLYH (Escherichia coli, UniProt P0A6T3, D325E/M173L/Y371H); test: GalKMLYH conversion of L-sugars at 16° C.; format: biochemical; details: 5 hrs of incubation, partially purified cell extract
# T2 construct: made in house; host or cells: E. coli
# Procedure: The GalKMLYH enzyme was finally tested at 16° C. for the conversion of several other L-sugars using partially purified cell extract from the overexpressing E. coli strain and typical reaction conditions.
# EP-P2 [4] = details: determined by ESI-MS; cited from earlier work
# Sugar-1-kinase-S = test: Time course conversion of alternative substrates by Sugar-1-kinase-S; format: biochemical, Streptococcus thermophilus; details: 45° C., ~300 minutes, partially purified cell extract
# WT Sugar-1-kinase-P = biological target: T3, WT Sugar-1-kinase-P (Pyrococcus furiosus, UniProt Q9HHB6); test: Substrate specificity of purified WT Sugar-1-kinase-P (DNS assay); format: biochemical; details: 8 mM sugar, 2.4 mg/ml enzyme, 12 mM ATP, 5 mM MgCl2, pH 7.5 phosphate buffer
# T3 construct: 6-His (N); made in house; host or cells: E. coli
# Procedure: Often, when applying protein engineering to activity on a new substrate the resulting enzyme has relaxed substrate specificity which we wanted to achieve. The purified Sugar-1-kinase-PK27 was then tested for the conversion of a variety of sugars and compared to purified WT Sugar-1-kinase-P. The reactions were setup with 8 mM of different sugars (L-ribose, L-galactose, L-glucose, L-arabinose, L-xylose, L-rhamnose, L-mannose, L-gulose, L-fucose, and 6-Azido-D-galactose), 2.4 mg/ml enzyme, 12 mM ATP, and 5 mM MgCl2 in pH 7.5 phosphate buffer. Samples were taken every hour and analyzed by DNS assay (FIG. 4-5A).
# [5] = biological target: engineered E. coli GalKMLYH (Escherichia coli, UniProt P0A6T3, D325E/M173L/Y371H); details: substrate 1.5 g/L, purified enzyme 0.6 g/L; cited from earlier work
# T1 sequence (Q9HHB6 whole entry): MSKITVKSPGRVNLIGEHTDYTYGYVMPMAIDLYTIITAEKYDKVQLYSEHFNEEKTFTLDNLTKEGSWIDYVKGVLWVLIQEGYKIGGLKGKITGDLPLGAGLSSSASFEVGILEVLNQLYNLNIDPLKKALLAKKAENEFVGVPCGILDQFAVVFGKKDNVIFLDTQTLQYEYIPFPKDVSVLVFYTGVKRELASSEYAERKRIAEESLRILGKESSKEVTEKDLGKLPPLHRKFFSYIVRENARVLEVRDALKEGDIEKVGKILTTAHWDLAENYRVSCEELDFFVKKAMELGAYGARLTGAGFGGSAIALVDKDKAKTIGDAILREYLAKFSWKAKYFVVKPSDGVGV
# T3 sequence (Q9HHB6 whole entry): as above
smiles,measurement,setting,value
O=C[C@H](O)[C@@H](O)[C@@H](O)[C@H](O)CO [D-Galactose],"degree reaction proceeded to completion (ATP to ADP conversion), WT Pyrococcus furiosus",[1],90%
same,conversion to sugar-1-phosphate,Sugar-1-kinase-P,completely converted
same,"conversion to dTDP-sugar, estimated by TLC",[2],greater than 80%
C[C@@H](O)[C@H](O)[C@H](O)[C@@H](O)C=O [D-fucose],"degree reaction proceeded to completion (ATP to ADP conversion), WT Pyrococcus furiosus",[1],78%
O=P(O)(O)O[C@H]1O[C@H](CO)[C@H](O)[C@H](O)[C@H]1O [D-galactose-1-phosphate],activity with substrate,nucleotidyltransferase-S,active
"O=P(O)(O)O[C@H]1O[C@H](CO)[C@@H](O)[C@H](O)[C@H]1O [D-glu-1P, D-glucose-1-phosphate]",activity on sugar-1-phosphate,EP-S,good activity
same,activity on sugar-1-phosphate,EP-T; UTP,only active
same,activity on sugar-1-phosphate,EP-T; dTTP,converted
same,activity on sugar-1-phosphate,EP-P,only active
same,activity on sugar-1-phosphate,EP-P2 [3]; dTTP,showed activity
"O=P(O)(O)O[C@H]1O[C@H](CO)[C@@H](O)[C@H](O)[C@@H]1O [D-mannose-1P, D-mannose-1-phosphate]",activity on sugar-1-phosphate,EP-S,good activity
same,activity on sugar-1-phosphate,EP-P2 [3]; dTTP,showed activity
O=C[C@@H](O)[C@@H](O)[C@H](O)[C@H](O)CO [D-mannose],"degree reaction proceeded to completion (ATP to ADP conversion), WT Pyrococcus furiosus",[1],54%
O=C[C@H](O)[C@@H](O)[C@H](O)CO [D-xylose],"degree reaction proceeded to completion (ATP to ADP conversion), WT Pyrococcus furiosus",[1],50%
O=C[C@H](O)[C@@H](O)[C@@H](O)CO [L-arabinose],activity of GalK mutant on substrate,E. coli GalKMLYH,did not display significant activity
C[C@@H]1O[C@H](OP(=O)(O)O)[C@@H](O)[C@H](O)[C@@H]1O [L-fucose-1-P],transfer to UDP-L-Fucose,EP-P2 [4],82%
C[C@H](O)[C@@H](O)[C@@H](O)[C@H](O)C=O [L-fucose],activity of GalK mutant on substrate,E. coli GalKMLYH,did not display significant activity
same,"degree reaction proceeded to completion (ATP to ADP conversion), WT Pyrococcus furiosus",[1],40%
"O=P(O)(O)OC1OC(CO)C(O)C(O)C1O [L-glu-1P, L-glucose-1-phosphate]",activity on sugar-1-phosphate,EP-P2 [3]; UTP,did not appear to appreciably convert
same,activity on sugar-1-phosphate,EP-P2 [3]; dTTP,showed activity
O=C[C@@H](O)[C@H](O)[C@@H](O)[C@@H](O)CO [L-glucose],activity of GalK mutant on substrate,E. coli GalKMLYH,did not display significant activity
same,reaction completion,Sugar-1-kinase-S,95-100%
same,activity on sugar,WT Sugar-1-kinase-P,displayed activity
same,conversion to sugar-1-phosphate,Sugar-1-kinase-P,completely converted
same,"conversion to dTDP-sugar, estimated by TLC",[2],~20%
same,conversion to 1-phosphate,[5],25%
O=C[C@@H](O)[C@@H](O)[C@H](O)[C@@H](O)CO [L-gulose],activity of GalK mutant on substrate,E. coli GalKMLYH,did not display significant activity
O=C[C@H](O)[C@H](O)[C@@H](O)[C@@H](O)CO [L-mannose],activity of GalK mutant on substrate,E. coli GalKMLYH,did not display significant activity
C[C@H](O)[C@H](O)[C@@H](O)[C@@H](O)C=O [L-rhamnose],activity of GalK mutant on substrate,E. coli GalKMLYH,did not display significant activity
O=C[C@@H](O)[C@@H](O)[C@@H](O)CO [L-ribose],activity of GalK mutant on substrate,E. coli GalKMLYH,did not display significant activity
O=C[C@@H](O)[C@H](O)[C@@H](O)CO [L-xylose],activity of GalK mutant on substrate,E. coli GalKMLYH,did not display significant activity
O=c1ccn([C@@H]2O[C@H](COP(=O)(O)OP(=O)(O)OP(=O)(O)O)[C@@H](O)[C@H]2O)c(=O)[nH]1 [UTP],outcome as alternative nucleotide donor,"[2]; 8 mM, one-pot coupled reaction",did not result in a successfully coupled reaction
